In assay [1] the test system is rat model of pulmonary hypertension induced by monocrotaline. As to the kind of experiment: rat model of pulmonary hypertension induced by monocrotaline. The class given is in vivo, rat (Sprague Dawley). As to the method: To further evaluate the effect of anti-Activin A antibodies in pulmonary arterial hypertension, a rat model of pulmonary hypertension induced by monocrotaline was used.
Six to seven week old Sprague Dawley rats were used. Rats were separated into treatment groups such that body weights were similar among different groups. Rats were subcutaneously administered either 40 mg/kg of monocrotaline or 5 mL/kg of saline at day 0. At 14 days post injection, saline-injected rats were orally dosed with PEG 400 (at 50:50 v/v, Affymetrix Inc., #19957) at 5 mL/kg daily for two weeks, and monocrotaline-injected rats were separated into 5 groups with a group (n=9) orally dosed with PEG 400 at 5 mL/kg daily for two weeks, another group (n=12) orally administered macintentan at 30 mg/kg daily for two weeks, and three groups that were both orally dosed with PEG 400 at 5 mL/kg daily for two weeks and subcutaneously treated with either anti-Activin A antibodies, H4H10430P (n=9), H4H10446P2 (n=11), or an isotype control antibody (n=10) at 40 mg/kg twice a week for two weeks.
At day 27, pulmonary artery size and right ventricular function and dimensions of the rats were assessed using a high frequency ultrasound system (Vevo 2100, VisualSonics). For the assessment, rats were anesthetized (with 1.5% isoflurane at a rate of 1.0 cc/mL of medical grade air) and their temperature was monitored with a rectal temperature probe and held at approximately 37° C. with a heated platform (Vevo 2100, Visualsonics) and a warming lamp. Both brightness-mode (B-mode) and motion-mode (M-mode) imaging were used. B-mode imaging of the rat heart in cross-section was used to determine pulmonary artery cross-sectional area (PA CSA) at the level of the pulmonary valve. […] was used to determine the pulsed wave velocity time integral (VTI), which is derived from the area under the curve of representative Doppler tracings of blood flow through the pulmonary artery. Right ventricular stroke volume (RV SV) was calculated from the product of PA CSA and VTI. Right ventricular cardiac output (RV CO) was calculated from the product of SV and heart rate (HR). M-mode imaging was used to determine right ventricular free wall (RVFW) thickness during diastole and systole. Animals were returned to their home cages before right ventricular pressure assessment.
Right ventricular pressure was subsequently assessed for all treatment groups. Rats were anesthetized with isoflurane and were kept at approximately 37° C. using a platform (Heated Hard Pad 1, Braintree Scientific) and circulating heated water pump (T/Pump Classic, Gaymar Industries). The neck area for each rat was prepared for surgery by depilating over the right common carotid artery and right jugular vein. An incision was made and the right jugular vein was isolated with care as to not damage the carotid artery and/or the Vagus nerve. A piece of 5-0 silk suture was placed under the isolated jugular vein to allow for retraction of the vessel cranially, then a 26-guage needle was used to introduce a hole into the jugular vein. A pressure catheter (Micro-tip catheter transducer SPR-1000, Millar Instruments, Inc.) was inserted into the opening of the jugular vein and advanced past the right atrium into the right ventricle. The catheter was connected to pressure/volume instrument (MPVS-300, Millar Instruments, Inc.) that measured heart rate as well as both diastolic and systolic right ventricular pressures. These parameters were digitally acquired using a data acquisition system (PowerLab 4/35, ADlnstruments). LabChart Pro 7.0 software (ADlnstruments) was used to analyze right ventricular pressures. Readings were quantified from a 60 second interval of the pressure tracing (following a 2 minute period of recording to allow for pressure stabilization). The parameters analyzed were RV diastolic and systolic pressures, heart rate and ventricular contractile function. […]

Assay [2] deals with long-term rat monocrotaline in vivo model. As to the kind of experiment: long-term rat monocrotaline model, survival. Conditions: monocrotaline 40 mg/kg SC day 0; therapy from two weeks post-monocrotaline for 5 weeks; antibodies 40 mg/kg SC 2x/wk, macitentan 30 mg/kg PO daily; n=10. Also on record: species or system rat (Sprague Dawley). As to the method: To evaluate the survival benefit of anti-Activin A antibody in a pulmonary arterial hypertension model, a long-term rat monocrotaline in vivo model was used.
Six-to-seven week old Sprague Dawley rats were used. Rats were separated into treatment groups such that body weights were similar among different groups. Rats were subcutaneously administered either 40 mg/kg of monocrotaline or 5 mL/kg of saline at day 0. At 14 days post-injection, saline-injected rats were subcutaneously treated with saline at 5 mL/kg, twice a week for 5 weeks, unless they died prematurely.
The monocrotaline-injected rats were separated into 4 groups. One group (n=10) was orally administered macitentan at 30 mg/kg daily. A second group (n=10) was subcutaneously administered saline at 5 mL/kg twice a week. A third group (n=10) was subcutaneously treated with either an isotype control antibody, H4H6334P. A fourth group (n=10) was subcutaneously treated with the anti-Activin A antibody, H4H10446P2, at 40 mg/kg twice a week. These monocrotaline-treated rats were started on therapy at two weeks post-monocrotaline and continued for 5 weeks, unless the animal died prematurely.
Animals were monitored twice a day for signs of morbidity or mortality. Based on literature searches, 5-8 weeks after monocrotaline injection is typically a time where morbidity and mortality are likely. […]

The mark [3] stands for this setting: monocrotaline 40 mg/kg SC day 0, antibodies 40 mg/kg SC 2x/wk, macitentan 30 mg/kg PO daily from day 14 for two weeks, ultrasound day 27.

Marks after values point to notes of the source that are not given here.

As for `CCCNS(=O)(=O)Nc1ncnc(OCCOc2ncc(Br)cn2)c1-c1ccc(Br)cc1` [Macitentan], in assay [1] (setting [3]), the “PA CSA (Ave ± SEM)” value was 9.458 ± 0.476** mm^2; the “Right Ventricular cardiac output (Ave ± SEM)” value is listed as 127.8 ± 11.7 mL/min; the “Stroke Volume (Ave ± SEM), right ventricular” value worked out at 371.6 ± 27.9 µL. Besides, the “effect on right ventricular cardiac output (in words)” value in assay [1] (monocrotaline exposed rats) was “partially restored cardiac output”. Also, the “effect on PA CSA (in words)” value in assay [1] (monocrotaline-injected rats, FIG. 3A) is “restored PA CSA to that of saline-injected rats”. In addition, the “effect on right ventricular stroke volume (in words)” value in assay [1] (monocrotaline-injected rats, FIG. 3B) is “partially restored stroke volume”. Also, the “effect on right ventricular hypertrophy, Fulton Index RV/(LV+S) (in words)” value in assay [1] (monocrotaline-injected rats, FIG. 3C) is “did not lessen right ventricular hypertrophy”. For the same compound, the “effect on elevation of right ventricular pressures (in words)” value in assay [1] (monocrotaline-injected rats, catheter-based assessment, FIG. 3D) is given as “none of the treatment groups (Macitentan or anti-Activin A groups) showed attenuation in the elevation of right ventricular pressures”. The “mortality (animals that died during the study)” value in assay [2] is on record as “Forty”.
